Legend:
[1] = molecular target: T1, human FGFR3 wild type enzyme (cytoplasmic domain) (Homo sapiens, UniProt P22607); experiment: FGFR3 wild type mobility shift assay (enzymatic assay); format: biochemical; conditions: 75 μM ATP, 50 minutes at 30° C., Caliper EZ reader II
T1 construct: human FGFR3 wild type enzyme (cytoplasmic domain, from Carna Biosciences); purchased Carna Biosciences
Experimental: FGFR3 Wild Type Mobility Shift Assay (Enzymatic Assay)
(§1) In a final reaction volume of 25 μL, 0.04 ng/μL human FGFR3 wild type enzyme (cytoplasmic domain, from Carna Biosciences) was incubated with 75 μM ATP, 1 μM FL-peptide 30 substrate and 250 nL of testing compound (1% DMSO final) in assay buffer (100 mM HEPES pH 7.4, 10 mM MgCl2, 0.003% Brij35, 1 mM DTT). After incubation for 50 minutes at 30° C. the reaction was stopped with 10 μL of 0.5M EDTA pH 8.0, and then 25 μL of reaction mixture was transferred to reading plate and measured on Caliper EZ reader II. The substrate-product conversion rate was used as raw data for normalization and concentration-response curve (10 dose points with 4× serial dilution, starting with 10 μM) was plotted using Prism to calculate IC50 (M), pIC50 (−log IC50) and HillSlope value.

[2] = molecular target: T2, human FGFR3 V555M enzyme (cytoplasmic domain carrying V555M mutation) (Homo sapiens, UniProt P22607, V555M); experiment: FGFR3 V555M mobility shift assay (enzymatic assay); format: biochemical; conditions: 30 μM ATP, 45 minutes at 30° C., Caliper EZ reader II
T2 construct: human FGFR3 V555M enzyme (cytoplasmic domain carrying V555M mutation, from Carna Biosciences); purchased Carna Biosciences
T2 sequence (P22607 397-806 V555M limits assumed): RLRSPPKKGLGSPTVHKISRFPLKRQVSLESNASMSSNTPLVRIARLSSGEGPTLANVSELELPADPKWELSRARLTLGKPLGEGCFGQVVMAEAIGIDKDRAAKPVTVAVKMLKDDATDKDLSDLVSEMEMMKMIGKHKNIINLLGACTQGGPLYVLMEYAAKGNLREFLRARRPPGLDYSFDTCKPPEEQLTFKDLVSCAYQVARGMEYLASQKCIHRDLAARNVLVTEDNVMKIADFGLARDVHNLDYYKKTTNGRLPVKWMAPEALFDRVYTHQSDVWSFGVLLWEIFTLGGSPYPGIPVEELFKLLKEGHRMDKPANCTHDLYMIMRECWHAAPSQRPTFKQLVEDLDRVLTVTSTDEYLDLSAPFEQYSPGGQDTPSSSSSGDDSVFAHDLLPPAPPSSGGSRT
Experimental: FGFR3 V555M Mobility Shift Assay (Enzymatic Assay)
as §1, with “FGFR3 V555M” for “FGFR3 wild type”, “(cytoplasmic domain carrying V555M mutation,” for “(cytoplasmic domain,”, “with 30” for “with 75”, “for 45” for “for 50”

[3] = tested on: NIH/3T3 cells transfected with the same control vector; experiment: NIH/3T3 mock cell proliferation assay (counter assay, general toxicity); format: cell-based; conditions: Mus musculus, NIH3T3, 72 h, 72-hr incubation, CellTiter Glo, starting with 30 μM; counter assay for general toxicity; read-out: NIH/3T3 MOCK CTG (IC50)
Experimental: NIH/3T3 Mock Cell Proliferation Assay
(§2) In day 1, 90 μL of cell suspension (NIH/3T3 cells transfected with the same control vector as in the above two proliferation assays) (total 30,000 cells per well in growth medium (DMEM containing 1% Glutamax, 10% FBS and 1% Pen/Strep)) was seeded in a 96-well plate and then incubated overnight at 37° C. and 5% CO2. In day 2, 10 μL of growth medium containing 10-fold stock solution of testing compound was added into cell cultures (9 dose points with 3× serial dilution, starting with 30 μM, 0.3% DMSO final). After 72-hr incubation at 37° C. and 5% CO2, in day 5 a volume of 50 μL CellTiter Glo (CTG) reagent was added into cell-containing 96-well plate and the plate was incubated at room temperature for 10 minutes before RLUs (relative light unit) were measured on a microplate reader with luminescence detection module. The RLU value was normalized to survival % and concentration-response curve was plotted using Prism to calculate IC50 (M), pIC50 (−log IC50) and HillSlope value.

[4] = molecular target: T3, NIH/3T3 cells overexpressing FGFR3 V555M-TACC3 fusion protein (Homo sapiens, UniProt P22607, V555M, cells depend on it); experiment: NIH/3T3 FGFR3 V555M-TACC3 cell proliferation assay; format: cell-based; conditions: 72-hr incubation, CellTiter Glo, starting with 10 μM; read-out: NIH/3T3 FGFR3 V555M-TACC3 CTG (IC50)
T3 construct: NIH/3T3 FGFR3 V555M-TACC3 CTG (IC50); other: 72-hr incubation, CellTiter Glo, starting with 10 μM; fused on or other part: Q9Y6A5 (Transforming acidic coiled-coil-containing protein 3)
T3 sequence (P22607 whole entry V555M, the tested form may be a part): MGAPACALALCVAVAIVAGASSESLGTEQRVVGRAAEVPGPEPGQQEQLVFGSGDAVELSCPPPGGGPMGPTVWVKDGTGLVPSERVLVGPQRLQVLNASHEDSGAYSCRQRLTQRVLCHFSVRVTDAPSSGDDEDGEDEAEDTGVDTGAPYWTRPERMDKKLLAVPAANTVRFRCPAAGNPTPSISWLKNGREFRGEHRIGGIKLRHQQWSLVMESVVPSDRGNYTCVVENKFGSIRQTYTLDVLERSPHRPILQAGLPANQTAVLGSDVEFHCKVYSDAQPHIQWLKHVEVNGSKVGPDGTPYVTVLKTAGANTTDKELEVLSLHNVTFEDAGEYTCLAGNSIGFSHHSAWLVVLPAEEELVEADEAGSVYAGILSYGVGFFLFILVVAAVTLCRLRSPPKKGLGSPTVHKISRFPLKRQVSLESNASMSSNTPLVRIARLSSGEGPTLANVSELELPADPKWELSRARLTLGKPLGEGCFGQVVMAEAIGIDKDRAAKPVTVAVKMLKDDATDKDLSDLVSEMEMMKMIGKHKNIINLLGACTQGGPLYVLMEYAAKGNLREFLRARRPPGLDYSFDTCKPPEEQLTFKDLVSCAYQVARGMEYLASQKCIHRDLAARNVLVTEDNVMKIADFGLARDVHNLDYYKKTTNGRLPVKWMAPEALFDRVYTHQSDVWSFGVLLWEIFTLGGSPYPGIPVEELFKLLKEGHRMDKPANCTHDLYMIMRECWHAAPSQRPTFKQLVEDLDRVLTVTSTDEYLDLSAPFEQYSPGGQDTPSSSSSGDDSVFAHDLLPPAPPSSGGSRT
Experimental: NIH/3T3 FGFR3 V555M-TACC3 Cell Proliferation Assay
as §2, with “cells overexpressing FGFR3 V555M-TACC3 fusion protein)” for “cells transfected with the same control vector as in the above two proliferation assays)”, “with 4×” for “with 3×”, “with 10” for “with 30”, “μM, 0.1%” for “μM, 0.3%”

[5] = molecular target: T4, NIH/3T3 cells overexpressing FGFR3 WT-TACC3 fusion protein (Homo sapiens, UniProt P22607); experiment: NIH/3T3 FGFR3 WT-TACC3 cell proliferation assay; format: cell-based; conditions: 72-hr incubation, CellTiter Glo, starting with 10 μM; read-out: NIH/3T3 FGFR3 WT-TACC3 CTG (IC50)
T4 construct: NIH/3T3 FGFR3 WT-TACC3 CTG (IC50); other: 72-hr incubation, CellTiter Glo, starting with 10 μM; fused on or other part: Q9Y6A5 (Transforming acidic coiled-coil-containing protein 3)
T4 sequence (P22607 whole entry, change not shown, the tested form may be a part): as the sequence (P22607 whole entry V555M, the tested form may be a part) above, with M555V counted along it
Experimental: NIH/3T3 FGFR3 WT-TACC3 Cell Proliferation Assay
as §2, with “cells overexpressing FGFR3 WT-TACC3 fusion protein)” for “cells transfected with the same control vector as in the above two proliferation assays)”, “with 4×” for “with 3×”, “with 10” for “with 30”, “μM, 0.1%” for “μM, 0.3%”

T1 sequence (P22607 397-806 limits assumed): as the sequence (P22607 397-806 V555M limits assumed) above, with M159V counted along it

Row | IC50 [1] [nM] | IC50 [2] [nM] | GI50 [4] [nM] | GI50 [5] [nM] | Compound | IC50 [3] [nM]
1 | 1 | 0.643 | 9.93 | 20.3 | CC(Nc1c(-c2nc3ccc(N4CCC(OC(F)(F)F)CC4)cc3[nH]2)c(=O)[nH]c2ccccc12)c1ncccn1 (single isomer, unassigned) [Compound 43a, (S*)-4-((1-(pyrimidin-2-yl)ethyl)amino)-3-(6-(4-(trifluoromethoxy)piperidin-1-yl)-1H-benzo[d]imidazol-2-yl)quinolin-2(1H)-one] | 8270
2 | 4.89 | 0.997 | 114 | 58.7 | C[C@H](Nc1c(-c2nc3ccc(N4CCOCC4)cc3[nH]2)c(=O)[nH]c2ccc(F)cc12)c1ccccn1 [Compound 17, (S)-6-fluoro-3-(6-morpholino-1H-benzo[d]imidazol-2-yl)-4-((1-(pyridin-2-yl)ethyl)-amino)quinolin-2(1H)-one] | 661
3 | 0.244 | 0.147 | 3.98 | 9.46 | CC(Nc1c(-c2nc3ccc(N4CC5CCC(C4)O5)cc3[nH]2)c(=O)[nH]c2ccccc12)c1ncccn1 (single isomer, unassigned) [Compound 44a, 3-(6-(8-oxa-3-azabicyclo[3.2.1]octan-3-yl)-1H-benzo[d]imidazol-2-yl)-4-(((S*)-1-(pyrimidin-2-yl)ethyl)amino)quinolin-2(1H)-one] | 3040
4 | 29.3 | 20.2 | – | – | CC(Nc1c(-c2nc3ccc(N4C[C@@H](C)O[C@H](C)C4)cc3[nH]2)c(=O)[nH]c2ccccc12)c1ncccn1 (single isomer, unassigned) [Compound 37b, 3-(6-((2R,6R)-2,6-dimethylmorpholino)-1H-benzo[d]imidazol-2-yl)-4-(((R*)-1-(pyrimidin-2-yl)ethyl)amino)quinolin-2(1H)-one] | –
5 | 0.809 | 0.484 | 61.7 | 32.3 | C[C@H](Nc1c(-c2nc3ccc(N4CCC(C(=O)O)CC4)cc3[nH]2)c(=O)[nH]c2ccccc12)c1ccccn1 [Compound 6, (S)-1-(2-(2-Oxo-4-((1-(pyridin-2-yl)ethyl)amino)-1,2-dihydroquinolin-3-yl)-H-benzo[d]imidazol-6-yl)piperidine-4-carboxylic acid 0.5formate] | 795
6 | 0.174 | 0.136 | 6.47 | 6.58 | CC(Nc1c(-c2nc3ccc(N4C[C@H](C)O[C@@H](C)C4)cc3[nH]2)c(=O)[nH]c2ccccc12)c1ncccn1 (single isomer, unassigned) [Compound 39a, 3-(6-((2S,6S)-2,6-dimethylmorpholino)-1H-benzo[d]imidazol-2-yl)-4-(((S*)-1-(pyrimidin-2-yl)ethyl)amino)quinolin-2(1H)-one] | 1600
7 | 48.9 | 8.75 | – | – | C[C@H](Nc1c(-c2nc3ccc(N4CCOCC4)cc3[nH]2)c(=O)[nH]c2ccccc12)c1nccc(C2CC2)n1 (single isomer, unassigned) [Compound 50a, (S*)-4-((1-(4-cyclopropylpyrimidin-2-yl)ethyl)amino)-3-(6-morpholino-H-benzo[d]-imidazol-2-yl)quinolin-2(1H)-one] | –
8 | 39.4 | 19.4 | – | – | CC(Nc1c(-c2nc3ccc(N4CCN(CCC(F)(F)F)CC4)cc3[nH]2)c(=O)[nH]c2ccccc12)c1ncccn1 (single isomer, unassigned) [Compound 41b, (R*)-4-((1-(pyrimidin-2-yl)ethyl)amino)-3-(6-(4-(3,3,3-trifluoropropyl)piperazin-1-yl)-1H-benzo[d]imidazol-2-yl)quinolin-2(1H)-one] | –
9 | 61.9 | 19.2 | – | – | CC(Nc1c(-c2nc3cc(C(F)(F)F)c(N4CCC(C(=O)OC(C)(C)C)CC4)cc3[nH]2)c(=O)[nH]c2ccccc12)c1ncccn1 (single isomer, unassigned) [Compound 57, (S*)-tert-butyl 1-(2-(2-oxo-4-((1-(pyrimidin-2-yl)ethyl)amino)-1,2-dihydroquinolin-3-yl)-5-(trifluoromethyl)-1H-benzo[d]imidazol-6-yl)piperidine-4-carboxylate] | –
10 | 35.2 | 15.3 | – | – | CC(Nc1c(-c2nc3ccc(-c4cnn(C)c4)cc3[nH]2)c(=O)[nH]c2ccccc12)c1ncccn1 (single isomer, unassigned) [Compound 53b, (R*)-3-(6-(1-methyl-1H-pyrazol-4-yl)-1H-benzo[d]imidazol-2-yl)-4-((1-(pyrimidin-2-yl)ethyl)amino)quinolin-2(1H)-one] | –
11 | 27 | 7.07 | – | – | CC(C)c1ccnc(C(C)Nc2c(-c3nc4ccc(N5CCOCC5)cc4[nH]3)c(=O)[nH]c3ccccc23)n1 (single isomer, unassigned) [Compound 49a, (S*)-4-((1-(4-isopropylpyrimidin-2-yl)ethyl)amino)-3-(6-morpholino-1H-benzo[d]-imidazol-2-yl)quinolin-2(1H)-one] | –
12 | 32.6 | 12 | – | – | CC(Nc1c(-c2nc3ccc(N4CCN(C)CC4)cc3[nH]2)c(=O)[nH]c2ccccc12)c1cocn1 (single isomer, unassigned) [Compound 11a, (S*)-3-(6-(4-methylpiperazin-1-yl)-1H-benzo[d]imidazol-2-yl)-4-((1-(oxazol-4-yl)-ethyl)amino)quinolin-2(1H)-one] | –

Source: patent publication US11384075B2, “Quinolinone compounds” (Janssen Pharmaceutica NV, priority 2017, dated 2022)
